SMILES strings stand for the structures.

One data set can be described thus: in vitro. The settings on record: human, pH 7.4.
The conditions of data set [1]: oral administration; inferred from Papp of Example 12. From the text: Previous studies of the drug permeability data in Caco-2 cells for predicting human drug absorption data plotted apparent permeability (Papp) values against the drug fraction absorbed in humans expressed as a percentage of the administered dose (FA). […] (Turco, et al. Toxicology in Vitro, 2010, 13-20).

Method for in vitro: Phosphate-buffered saline (PBS, Cat. #10010 from ThermoFisher Scientific, Waltham, MA, USA) was adjusted to pH 7.4 and used as the receiver buffer. […] Tissues were received and stored at 4° C. until use. The tissue inserts were transferred to plates containing MATTEK SMI-100 culture medium using sterile technique and placed in a humidified incubator (37±1° C., 5% CO2) overnight for recovery prior to use, according to MATTEK protocols.
The control was PBS, pH 7.4 buffer for baseline endogenous histamine. Reference B was histamine α,α,β,β-d4 dihydrochloride (1 mg/mL) in PBS, pH 7.4. Reference A was a 300 μL dose added to the apical side of the tissue. […] In each trial, a 100 μL sample was immediately collected as the 0-minute donor sample and was not replenished. The pharmaceutical composition, the control, and Reference B were dosed with 200 μL, and 10 μL donor samples and collected at each time point (0, 15, 30, 60, and 120 minutes) without replacement. Six replicates of each treatment were conducted. […] The assay plates were transferred to a humidified incubator (37±1° C., 5% CO2) between sampling time points. […] Upon completion of the study, all samples were stored at −80° C. until analysis by LC-MS/MS. […]
The cumulative receiver concentration of each compound at each time point (Cc) was calculated as the sum of the measured concentration at that time point (Cm) and 0.2/5 of the measured concentrations at the previous time points (a 0.2 mL receiver sample out of the 5 mL total receiver volume was withdrawn and replaced at each time point, except for the final time point which was not replaced).
The Papp for each compound was calculated as follows: Papp=(dCr/dt)×Vr/(A×Cn), where dCr/dt is the slope of the cumulative receiver concentration (in μM) vs. time (t); Vr is the volume of the receiver compartment (5 cm^3); A is the exposed surface area for permeation (0.6 cm^2); and Cn is the nominal concentration in the donor compartment (in μM).
The recovery (%) at the final timepoint for histamine was calculated as follows: Recovery=100×((Vr120×Cr^final)+(Vd^initial×Cd^initial)+(Vd^15×Cd^15)+(Vd^30×Cd^30)+(Vd^60×Cd^60)+(Vd^final×Cd^final))/(Vd×Cn).
The flux was calculated using the following equation: Flux(overall)=dCc/dt×Vr/A; where dCc/dt is the slope of the cumulative receiver concentration (in μM) vs. time (t); Vr is the volume of the receiver compartment (in cm^3); t is the duration of the flux period in the linear range (in minutes); and A is the diffusional surface area of the exposed tissue surface (0.6 cm^2).

For the molecule `CC(C)NCC(O)COc1ccc(CC(N)=O)cc1` (centres unmarked) [atenolol], the recovery at 120 min in the data set “in vitro” turned out to be 89.1 ± 5.2%.

A word on the Papp A→B: it is the apparent permeability from the apical to the basolateral side of a cell layer. Turning to `Cl.Cl.NCCc1c[nH]cn1` [histamine dihydrochloride], the “absorbed in the small intestine, amount of the administered dosage” value in data set [1] is “greater than 85%”. In the data set “in vitro”, this molecule yielded a Papp A→B at 120 min of 18.7 ± 1.5 ×10⁻⁶ cm/s; a Papp A→B at 120 min, 89969 μM of 18.7 ± 1.5 ×10⁻⁶ cm/s; a recovery at 120 min of 93.6%.

These data come from patent US20240165082A1, “ORALLY ADMINISTERED COMPOSITIONS FOR CANCER TREATMENT” (priority 2021, published 2024).
